Data: paper PMC4979471 (Cell Death Discovery, 2015)
Where two headings read alike, the source gives them in different places.

How the values were obtained:
Experiment in all cases: Kinase selectivity, P33-radiolabeled assay
Format in all cases: biochemical
Conditions in all cases: 10 μM ATP
[1] = molecular target: T1, GRK3 (Homo sapiens, UniProt P35626)
T1 construct: purchased Reaction Biology Corp
T1 sequence (P35626 1-688): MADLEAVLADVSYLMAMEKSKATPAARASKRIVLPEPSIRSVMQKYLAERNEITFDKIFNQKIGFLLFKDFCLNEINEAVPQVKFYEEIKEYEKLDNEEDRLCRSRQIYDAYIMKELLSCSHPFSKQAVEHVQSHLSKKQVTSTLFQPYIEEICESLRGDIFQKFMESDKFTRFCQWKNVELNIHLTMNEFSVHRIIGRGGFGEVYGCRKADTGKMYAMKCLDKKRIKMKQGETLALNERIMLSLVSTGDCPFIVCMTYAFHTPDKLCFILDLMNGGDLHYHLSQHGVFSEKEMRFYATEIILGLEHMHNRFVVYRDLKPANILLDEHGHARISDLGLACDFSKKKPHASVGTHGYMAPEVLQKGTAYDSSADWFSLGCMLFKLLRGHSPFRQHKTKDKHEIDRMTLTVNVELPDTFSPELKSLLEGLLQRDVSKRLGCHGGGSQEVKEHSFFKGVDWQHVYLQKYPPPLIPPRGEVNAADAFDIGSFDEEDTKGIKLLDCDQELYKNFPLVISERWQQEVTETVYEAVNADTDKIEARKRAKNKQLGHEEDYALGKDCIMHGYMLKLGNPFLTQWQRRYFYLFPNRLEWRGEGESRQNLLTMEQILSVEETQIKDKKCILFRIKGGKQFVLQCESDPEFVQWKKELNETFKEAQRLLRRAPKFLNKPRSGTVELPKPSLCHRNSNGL
Procedure, shortened: (§1)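 Percent residual kinase activity versus DMSO is reported. Conditions: compound at 10 μM, ATP at 10 μM, n = 2.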

[2] = molecular target: T2, EPHA4 (Homo sapiens, UniProt P54764)
T2 construct: purchased Reaction Biology Corp
T2 sequence (P54764 20-986): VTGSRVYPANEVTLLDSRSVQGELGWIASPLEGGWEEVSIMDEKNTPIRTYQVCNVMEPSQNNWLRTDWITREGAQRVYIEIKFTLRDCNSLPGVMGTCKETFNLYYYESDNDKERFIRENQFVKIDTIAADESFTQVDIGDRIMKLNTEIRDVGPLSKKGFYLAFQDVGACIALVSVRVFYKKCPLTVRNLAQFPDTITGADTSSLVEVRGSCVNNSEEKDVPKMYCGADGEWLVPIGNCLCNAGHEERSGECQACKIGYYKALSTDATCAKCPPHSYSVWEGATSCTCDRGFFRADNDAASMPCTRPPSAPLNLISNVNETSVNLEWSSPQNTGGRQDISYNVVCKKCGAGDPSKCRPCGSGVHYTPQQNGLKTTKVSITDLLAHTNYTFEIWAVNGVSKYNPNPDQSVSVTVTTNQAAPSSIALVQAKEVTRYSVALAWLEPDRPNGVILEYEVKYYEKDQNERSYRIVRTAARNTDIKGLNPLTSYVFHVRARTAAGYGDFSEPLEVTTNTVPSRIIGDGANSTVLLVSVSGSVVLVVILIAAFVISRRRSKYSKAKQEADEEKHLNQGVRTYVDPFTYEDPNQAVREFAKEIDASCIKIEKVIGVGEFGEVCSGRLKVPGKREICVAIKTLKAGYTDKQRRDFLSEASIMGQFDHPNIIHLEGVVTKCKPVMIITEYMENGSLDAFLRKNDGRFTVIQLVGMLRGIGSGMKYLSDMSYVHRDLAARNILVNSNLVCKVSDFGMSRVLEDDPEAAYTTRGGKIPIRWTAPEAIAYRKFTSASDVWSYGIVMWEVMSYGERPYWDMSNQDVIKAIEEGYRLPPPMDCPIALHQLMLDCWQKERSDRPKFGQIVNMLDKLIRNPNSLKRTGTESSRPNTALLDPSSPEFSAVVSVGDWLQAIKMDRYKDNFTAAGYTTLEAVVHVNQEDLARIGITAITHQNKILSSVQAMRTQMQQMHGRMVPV
Procedure, shortened: as §1

[3] = molecular target: T3, RSK4 (Homo sapiens, UniProt Q9UK32)
T3 construct: purchased Reaction Biology Corp
T3 sequence (Q9UK32 whole entry): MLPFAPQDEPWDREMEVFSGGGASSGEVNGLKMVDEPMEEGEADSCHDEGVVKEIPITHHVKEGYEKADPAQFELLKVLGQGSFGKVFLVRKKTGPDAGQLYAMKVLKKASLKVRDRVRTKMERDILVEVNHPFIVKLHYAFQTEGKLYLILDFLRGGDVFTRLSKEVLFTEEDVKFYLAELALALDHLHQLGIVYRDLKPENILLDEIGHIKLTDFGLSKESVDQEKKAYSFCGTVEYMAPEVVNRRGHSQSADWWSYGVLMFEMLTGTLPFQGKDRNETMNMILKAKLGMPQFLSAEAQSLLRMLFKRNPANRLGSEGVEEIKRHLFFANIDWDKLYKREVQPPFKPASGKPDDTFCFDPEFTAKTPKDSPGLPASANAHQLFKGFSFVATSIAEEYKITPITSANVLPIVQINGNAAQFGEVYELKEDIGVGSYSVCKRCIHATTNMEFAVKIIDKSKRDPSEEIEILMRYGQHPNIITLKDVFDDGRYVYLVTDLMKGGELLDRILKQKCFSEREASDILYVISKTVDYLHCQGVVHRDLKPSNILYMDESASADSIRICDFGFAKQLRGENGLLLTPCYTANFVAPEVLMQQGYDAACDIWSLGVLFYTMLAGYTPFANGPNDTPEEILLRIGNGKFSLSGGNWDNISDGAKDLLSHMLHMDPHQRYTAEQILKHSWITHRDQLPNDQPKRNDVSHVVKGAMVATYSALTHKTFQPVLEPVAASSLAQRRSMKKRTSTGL
Procedure, shortened: as §1

[4] = molecular target: T4, MST2/STK3 (Homo sapiens, UniProt Q13188)
T4 construct: purchased Reaction Biology Corp
T4 sequence (Q13188 1-491): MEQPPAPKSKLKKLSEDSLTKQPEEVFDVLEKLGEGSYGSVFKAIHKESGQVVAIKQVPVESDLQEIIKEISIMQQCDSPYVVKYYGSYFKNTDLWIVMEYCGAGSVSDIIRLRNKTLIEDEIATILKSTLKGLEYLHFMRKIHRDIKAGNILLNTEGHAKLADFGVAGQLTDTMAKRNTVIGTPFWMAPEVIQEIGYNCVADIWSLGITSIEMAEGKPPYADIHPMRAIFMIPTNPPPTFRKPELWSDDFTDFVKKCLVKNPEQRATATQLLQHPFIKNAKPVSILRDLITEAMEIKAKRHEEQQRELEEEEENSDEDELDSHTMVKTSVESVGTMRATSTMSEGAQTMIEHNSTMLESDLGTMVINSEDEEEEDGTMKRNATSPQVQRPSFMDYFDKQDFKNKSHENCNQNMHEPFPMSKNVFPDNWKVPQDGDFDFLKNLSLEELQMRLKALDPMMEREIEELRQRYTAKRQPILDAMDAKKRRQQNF
Procedure, shortened: as §1

[5] = molecular target: T5, PLK4/SAK (Homo sapiens, UniProt O00444)
T5 construct: purchased Reaction Biology Corp
T5 sequence (O00444 1-970): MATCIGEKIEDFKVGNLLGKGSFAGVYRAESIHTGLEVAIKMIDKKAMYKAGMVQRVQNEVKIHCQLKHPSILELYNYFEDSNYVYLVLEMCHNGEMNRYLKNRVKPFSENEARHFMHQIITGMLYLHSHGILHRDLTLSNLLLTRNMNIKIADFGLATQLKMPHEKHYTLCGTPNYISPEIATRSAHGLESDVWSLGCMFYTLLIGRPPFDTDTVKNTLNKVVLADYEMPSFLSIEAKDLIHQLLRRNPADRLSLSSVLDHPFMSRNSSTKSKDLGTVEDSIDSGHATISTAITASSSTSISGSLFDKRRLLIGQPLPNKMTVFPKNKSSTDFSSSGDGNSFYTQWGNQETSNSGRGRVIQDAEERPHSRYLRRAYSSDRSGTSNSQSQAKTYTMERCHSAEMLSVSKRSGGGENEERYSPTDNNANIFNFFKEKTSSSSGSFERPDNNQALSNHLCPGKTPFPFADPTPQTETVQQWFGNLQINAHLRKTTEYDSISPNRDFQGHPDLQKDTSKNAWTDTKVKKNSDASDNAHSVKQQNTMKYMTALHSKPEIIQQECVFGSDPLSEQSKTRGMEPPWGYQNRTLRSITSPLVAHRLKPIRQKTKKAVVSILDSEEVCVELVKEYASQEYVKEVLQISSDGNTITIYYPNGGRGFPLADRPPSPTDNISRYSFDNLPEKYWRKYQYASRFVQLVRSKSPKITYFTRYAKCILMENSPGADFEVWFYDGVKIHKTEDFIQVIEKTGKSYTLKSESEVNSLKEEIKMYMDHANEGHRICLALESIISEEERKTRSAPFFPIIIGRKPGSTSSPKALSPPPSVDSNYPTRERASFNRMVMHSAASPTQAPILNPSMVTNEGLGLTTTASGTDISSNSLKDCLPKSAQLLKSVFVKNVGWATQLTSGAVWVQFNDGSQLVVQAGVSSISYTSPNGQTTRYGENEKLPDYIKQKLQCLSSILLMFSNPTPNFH
Procedure, shortened: as §1

[6] = molecular target: T6, IRAK1 (Homo sapiens, UniProt P51617)
T6 construct: purchased Reaction Biology Corp
T6 sequence (P51617 whole entry): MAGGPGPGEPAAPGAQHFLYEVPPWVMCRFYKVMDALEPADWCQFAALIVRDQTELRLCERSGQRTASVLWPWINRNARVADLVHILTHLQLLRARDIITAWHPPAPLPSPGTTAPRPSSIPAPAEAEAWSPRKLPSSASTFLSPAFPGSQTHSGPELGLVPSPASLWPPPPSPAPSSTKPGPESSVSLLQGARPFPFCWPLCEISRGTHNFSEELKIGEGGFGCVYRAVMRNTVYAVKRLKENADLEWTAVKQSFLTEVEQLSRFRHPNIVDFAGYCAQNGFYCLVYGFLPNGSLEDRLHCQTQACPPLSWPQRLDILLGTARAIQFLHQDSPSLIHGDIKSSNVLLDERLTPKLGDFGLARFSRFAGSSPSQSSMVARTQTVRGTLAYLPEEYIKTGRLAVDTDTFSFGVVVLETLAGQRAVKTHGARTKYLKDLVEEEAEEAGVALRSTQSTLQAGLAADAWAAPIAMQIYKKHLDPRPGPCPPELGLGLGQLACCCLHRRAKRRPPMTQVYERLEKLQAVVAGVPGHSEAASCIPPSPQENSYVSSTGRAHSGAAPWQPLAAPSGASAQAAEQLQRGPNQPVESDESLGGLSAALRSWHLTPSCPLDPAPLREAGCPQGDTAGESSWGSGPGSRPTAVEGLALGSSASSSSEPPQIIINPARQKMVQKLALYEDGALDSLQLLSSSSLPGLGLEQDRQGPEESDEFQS
Procedure, shortened: as §1

[7] = molecular target: T7, PASK (Homo sapiens, UniProt Q96RG2)
T7 construct: purchased Reaction Biology Corp
T7 sequence (Q96RG2 whole entry): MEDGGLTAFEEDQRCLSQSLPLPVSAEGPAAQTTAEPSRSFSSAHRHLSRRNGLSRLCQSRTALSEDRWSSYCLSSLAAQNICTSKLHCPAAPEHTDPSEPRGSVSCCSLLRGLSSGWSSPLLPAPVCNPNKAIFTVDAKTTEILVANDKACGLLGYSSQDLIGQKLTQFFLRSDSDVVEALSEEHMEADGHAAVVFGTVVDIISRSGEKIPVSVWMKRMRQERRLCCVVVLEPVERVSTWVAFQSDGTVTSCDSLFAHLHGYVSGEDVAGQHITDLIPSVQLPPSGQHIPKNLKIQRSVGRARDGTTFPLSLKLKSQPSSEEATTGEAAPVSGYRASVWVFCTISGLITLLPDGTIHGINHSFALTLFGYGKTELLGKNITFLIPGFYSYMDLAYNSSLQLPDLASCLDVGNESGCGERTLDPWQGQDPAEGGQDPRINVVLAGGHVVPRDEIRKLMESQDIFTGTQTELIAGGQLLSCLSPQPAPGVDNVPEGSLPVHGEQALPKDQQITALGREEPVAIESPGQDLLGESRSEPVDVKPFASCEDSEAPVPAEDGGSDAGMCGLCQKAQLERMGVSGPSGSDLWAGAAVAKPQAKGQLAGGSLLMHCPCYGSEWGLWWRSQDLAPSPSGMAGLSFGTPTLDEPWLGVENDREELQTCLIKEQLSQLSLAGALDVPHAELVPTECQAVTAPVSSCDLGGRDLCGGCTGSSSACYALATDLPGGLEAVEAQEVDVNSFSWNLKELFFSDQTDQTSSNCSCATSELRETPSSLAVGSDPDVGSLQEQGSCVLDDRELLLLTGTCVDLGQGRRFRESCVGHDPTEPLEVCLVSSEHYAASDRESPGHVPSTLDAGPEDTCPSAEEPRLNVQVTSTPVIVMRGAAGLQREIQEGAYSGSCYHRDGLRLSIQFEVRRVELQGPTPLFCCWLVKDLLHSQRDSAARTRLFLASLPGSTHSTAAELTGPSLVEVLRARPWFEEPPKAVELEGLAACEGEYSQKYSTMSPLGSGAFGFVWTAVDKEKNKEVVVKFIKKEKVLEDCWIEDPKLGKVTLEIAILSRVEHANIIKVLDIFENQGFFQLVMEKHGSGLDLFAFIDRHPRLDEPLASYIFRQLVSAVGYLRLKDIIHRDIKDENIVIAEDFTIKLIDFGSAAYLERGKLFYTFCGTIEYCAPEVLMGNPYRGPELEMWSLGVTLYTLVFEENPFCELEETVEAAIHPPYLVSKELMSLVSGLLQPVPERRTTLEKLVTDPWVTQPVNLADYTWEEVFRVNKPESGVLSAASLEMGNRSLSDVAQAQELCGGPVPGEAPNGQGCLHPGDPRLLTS
Procedure, shortened: as §1

[8] = molecular target: T8, LIMK1 (Homo sapiens, UniProt P53667)
T8 construct: purchased Reaction Biology Corp
T8 sequence (P53667 whole entry): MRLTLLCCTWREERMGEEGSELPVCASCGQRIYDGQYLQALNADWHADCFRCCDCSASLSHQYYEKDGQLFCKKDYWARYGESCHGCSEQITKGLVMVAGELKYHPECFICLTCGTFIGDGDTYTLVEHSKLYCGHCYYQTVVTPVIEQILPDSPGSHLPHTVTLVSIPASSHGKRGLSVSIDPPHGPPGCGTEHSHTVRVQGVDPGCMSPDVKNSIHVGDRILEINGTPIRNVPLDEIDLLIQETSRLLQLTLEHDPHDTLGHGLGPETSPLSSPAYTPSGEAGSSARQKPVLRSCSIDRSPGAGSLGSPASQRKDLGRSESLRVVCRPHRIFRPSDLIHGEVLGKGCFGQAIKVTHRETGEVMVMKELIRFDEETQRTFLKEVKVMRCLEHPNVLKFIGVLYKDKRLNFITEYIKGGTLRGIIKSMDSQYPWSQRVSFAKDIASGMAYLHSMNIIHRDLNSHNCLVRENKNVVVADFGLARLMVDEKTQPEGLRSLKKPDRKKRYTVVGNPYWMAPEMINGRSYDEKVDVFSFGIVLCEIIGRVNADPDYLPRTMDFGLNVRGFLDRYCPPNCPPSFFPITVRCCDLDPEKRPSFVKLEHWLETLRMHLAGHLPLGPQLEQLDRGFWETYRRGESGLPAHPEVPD
Procedure, shortened: as §1

[9] = molecular target: T9, DDR1 (Homo sapiens, UniProt Q08345)
T9 construct: purchased Reaction Biology Corp
Procedure, shortened: as §1

[10] = read-out: % Enzyme Activity (relative to DMSO controls) AVG
[11] = read-out: % Enzyme Activity (relative to DMSO controls) Data 1
[12] = read-out: % Enzyme Activity (relative to DMSO controls) Data 2

In the case of `CC(C)(C)C(=O)N1N=CC[C@H]1c1ccccc1` [GSK′963], the remaining activity at 10 µM [1, 10] is reported as 97.9%, the remaining activity at 10 µM [1, 11] is reported as 98.1% and the remaining activity at 10 µM [1, 12] is reported as 97.6%. The remaining activity at 10 µM [2, 10] was 99.2%, the remaining activity at 10 µM [2, 11] was 99.2% and the remaining activity at 10 µM [2, 12] was 99.2%. The remaining activity at 10 µM [3, 10] was 116%, the remaining activity at 10 µM [3, 11] was 116% and the remaining activity at 10 µM [3, 12] was 116%. It also gave a remaining activity at 10 µM [4, 10] of 107%, a remaining activity at 10 µM [4, 11] of 105% and a remaining activity at 10 µM [4, 12] of 109%. The remaining activity at 10 µM [5, 10] was 113%, the remaining activity at 10 µM [5, 11] was 114% and the remaining activity at 10 µM [5, 12] was 112%. For the same compound, the remaining activity at 10 µM [6, 10] was 115%, the remaining activity at 10 µM [6, 11] was 114% and the remaining activity at 10 µM [6, 12] was 116%. For the same compound, the remaining activity at 10 µM [7, 10] was 102%, the remaining activity at 10 µM [7, 11] was 103% and the remaining activity at 10 µM [7, 12] was 101%. It also gave a remaining activity at 10 µM [8, 10] of 113%, a remaining activity at 10 µM [8, 11] of 112% and a remaining activity at 10 µM [8, 12] of 114%. The remaining activity at 10 µM [9, 10] was 96%, the remaining activity at 10 µM [9, 11] was 94% and the remaining activity at 10 µM [9, 12] was 97.9%.
